Test results: patent US12144869B2, “Anti-ROR1 antibody conjugates, compositions comprising anti ROR1 antibody conjugates, and methods of making and using anti-ROR1 antibody conjugates” (Sutro Biopharma, Inc., priority 2022, dated 2024)
Numbering of substitutions follows the chain as printed.

Columns and labels:
[1] = tested on: ROR1 positive Ntera-2 cell; assay: In vitro cell killing of ROR1 ADCs on Ntera-2; assay type: cell-based
Experimental: (§1) Anti-ROR1 antibody was conjugated to different linker-warheads described herein at different DARs and the cell killing activity of the ADCs were evaluated on ROR1 positive Ntera-2 cell and ROR1 negative MCF7 cells.
(§2) Ntera-2 or MCF7 cell at 625 cells/25 μL were seeded in a 384-well flat bottom white polystyrene plate one day before the assay start. ADCs were formulated at 2× starting concentration. Filter sterilized samples were serial diluted (1:3) under sterile conditions and added onto cells in triplicates. Plates were cultured at 37° C. in a CO2 incubator for 120 hours. For cell viability measurement, 30 microliter of Cell Titer-Glo® reagent (Promega Corp, Madison, WI) was added into each well, and plates processed as per product instructions. Relative luminescence was measured on an ENVISION® plate reader (Perkin-Elmer; Waltham, MA). Relative luminescence readings were converted to % viability using untreated cells as controls. Data was fitted with non-linear regression analysis, using log (inhibitor) vs. response, variable slope, 4-parameter fit equation using GraphPad Prism.
To evaluate if the cell killing activity of anti-ROR1 ADCs is dependent on antibody binding to ROR1 expressed on cell surface, the same linker-warheads (LP3, LP4) were conjugated to an anti-GFP antibody and the cell killing of the anti-ROR1 and anti-GFP ADCs were evaluated in cell killing assays on ROR1 positive Ntera-2 cell and ROR1 negative MCF7 cells. […]

[2] = tested on: ROR1 negative MCF7 cells; assay: In vitro cell killing of ROR1 ADCs on MCF7; assay type: cell-based
Experimental: as §1, §2
To evaluate if the cell killing activity of anti-ROR1 ADCs is dependent on antibody binding to ROR1 expressed on cell surface, the same linker-warheads (LP3, LP4) were conjugated to an anti-GFP antibody and the cell killing of the anti-ROR1 and anti-GFP ADCs were evaluated in cell killing assays on ROR1 positive Ntera-2 cell and ROR1 negative MCF7 cells.

[3] = tested on: ROR1-positive Ntera-2 cells; assay: Induction of immunogenic cell death markers (calreticulin FACS, HMGB1 ELISA); assay type: cell-based; settings: 3 days treatment
Experimental: ROR1-positive Ntera-2 cells were treated with Conjugate 46 or exatecan for 3 days. Calreticulin on the cell surface was measured by FACS and HMGB1 in the cell culture medium were measured by ELISA. […] FIG. 20A and FIG. 20B illustrate calreticulin expression and HMGB1 release of Ntera-2 cells in the presence of Conjugate 46 or exatecan compared to the un-conjugated antibody and an isotype control of Conjugate 46.

[4] = tested on: ROR1-positive Ntera-2 cells co-cultured with PMBCS; assay: Ntera-2/PBMC co-culture: target cell killing and monocyte activation; assay type: cell-based
Experimental: ROR1-positive Ntera-2 cells were co-cultured with PMBCS at E:T=[…] and treated with Conjugate 46 or exatecan for 3 days. Live target cell count and monocyte activation were measured by FACS. […] FIG. 21A and FIG. 21B are graphs showing the percent of live target cells and monocyte activation in Ntera-2 cells following treatment with Conjugate 46 or exatecan compared to the un-conjugated antibody and an isotype control of Conjugate 46. […] Unconjugated anti-ROR1 antibody or a non-targeted ADC had no activity. […] Viability and calreticulin surface expression were measured and presented as a percentage compared to untreated cells.

[5] = tested on: TNBC PDX tumors; assay: TNBC PDX models, single agent or combination with olaparib; assay type: in vivo, athymic nude mice; settings: CTG-0437, CTG-1017, and CTG-2055; single agent olaparib 50 mg/kg p.o. qd×28
Description: The activity of Conjugate 46 as a single agent or in combination with the PARP inhibitor olaparib was additionally assessed in TNBC PDX models. Briefly, PDX tumors, spanning varying levels of ROR1 expression and sensitivity to olaparib, were passaged in athymic nude Fox1^nu mice before being processed into tumor fragments for subcutaneous implantation into the hind flank of mice for study initiation. When tumors reached a volume of around 150-300 mm^3, the mice were randomized and enrolled into the study. Tumor-bearing mice were administered up to three weekly doses (qw×3) of Conjugate 46 i.v. at 5 mg/kg and up to twenty-eight daily doses (qd×28) of olaparib p.o. at 50 mg/kg.
Combination treatment with Conjugate 46 and olaparib (50 mg/kg, qd×28) is conducted using a 2 mg/kg, qw×3 dosing regimen for Conjugate 46. The combination therapy is assessed in six TNBC PDX models as described in Example 26.

[6] = tested on: Immunoglobulin (Ig), Frizzled (Fz), and Kringle (Kr) domains of ROR1; assay: Epitope binning ELISA on ROR1 domains; assay type: binding; settings: Table 6
Description: Antibody binding was detected via HRP-conjugated anti-human Fc antibodies (Jackson Immunoresearch) and detection with SuperSignal ELISA Pico Chemiluminescent Substrate (Pierce).

[7] = target: T1, HCT116 cells overexpressing human ROR1 (HCT116-hRor1) (Homo sapiens, UniProt Q01973); assay: FACS cell binding on HCT116-hROR1; settings: Table 11, SP34 light chain
T1 construct: expressed in transfected cells; host or cells: HCT116 (clone HCT116-hRor1-D02)
Description: Ntera-2, MDA-MB-231, MCF7, HCT116 and Mino cells were obtained from ATCC. HCT116-hRor1-D02 clone was generated by transfecting HCT116 cells with a plasmid containing human Ror1 cDNA sequence and selected for highest stable expression of hRor1 on the cell surface. MDA-MB-231, MCF7, HCT116 and HCT116-Ror1 cell were maintained in Ham's F-12 high glucose DMEM (50-50) (Cellgro-Mediatech; Manassas, VA) supplemented with 10% heat-inactivated fetal bovine serum (Hyclone; Thermo Scientific; Waltham, MA), 1% Penicillin/Streptomycin (Cellgro-Mediatech; Manassas, VA) and 2 mmol/L-glutamax (Life Technology; Carlsbad, CA). Mino cells were maintained in RPMI-1640 medium (Cellgro-Mediatech; Manassas, VA) supplemented with 20% heat-inactivated fetal bovine serum (Hyclone; Thermo Scientific; Waltham, MA), 1% Penicillin/Streptomycin (Cellgro-Mediatech; Manassas, VA) and 2 mmol/L-glutamax (Life Technology; Carlsbad, CA).
Variants with expression levels>250 nM were tested in a fluorescence-activated cell sorting (FACS) cell-binding assay. […]
A mix of ROR1 positive and negative cells was prepared as follows. […] Cells were then washed 2× with FACS buffer and fixed for 10 minutes in 200 μl PBS with 2% PFA prior to fluorescence detection. […] Mean Fluorescence Intensity of ROR1 antibody binding was analyzed using FlowJo® software (Tree Star, Inc.).

[8] = Differential scanning fluorimetry (protein thermal shift; TM1/TM2); assay type: physicochemical; settings: Table 11; melting temperature of the Fab domain
Method in brief: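 Protein at 0.2-2 mg/mL was mixed 1:1 with SYPRO Orange in PBS and heated to 95° C. at ~1.5° C. per minute while fluorescence was monitored, in quadruplicate. TM1 is Fc (CH2) unfolding and TM2 is Fab unfolding.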

[9] = target: T2, human ROR1-Fz (Homo sapiens, UniProt Q01973); assay: Biacore off-rate and kinetic analysis, ROR1-Fz; assay type: binding; settings: Table 11; SP34 light chain
T2 construct: Frizzled (Fz, residues 165-305); His6 (C); purchased Acro Biosystems; host or cells: HEK293
Method in brief: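 Anti-ROR1 antibodies captured on anti-human Fc surface; recombinant hROR1 ECD or ROR1-Fz analyte flowed at 100, 50, 25, 6.25, 1.5625 nM plus 0 nM, 180 s association, 600 s dissociation, 25° C., HBS-EP+ buffer. KD from ratio of rate constants, 1:1 Langmuir fit.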

With CC[C@@]1(O)C(=O)OCc2c1cc1n(c2=O)Cc2c-1nc1cc(F)c(C)c3c1c2[C@@H](N)CC3 [exatecan] the EC50 ([1]; NTERA2, 120 h, read-out: NTERA-2 EC50) was 0.074 nM, the “NTERA-2 Span” value ([1]; Table 13, ROR1 positive Ntera-2, 120 hours) was 98% and the EC50 ([2]; Homo sapiens, MCF7, 120 h, read-out: MCF-7 EC50) was 0.466 nM. For the same molecule, the “MCF-7 Span” value ([2]; Table 13, ROR1 negative MCF7, 120 hours) was 91%, the “HMGB1 release into the cell culture medium (ELISA)” value [3] was “induced” and the “calreticulin translocation to the cell surface (FACS)” value [3] was “induced”. The “cell killing of target cells (live target cell count, FACS)” value ([4]; E:T=10.1, 3 days) was “induced potent cell killing of target cells”, the “monocyte activation (CD86 expression)” value ([4]; E:T=10.1, 3 days) was “potently induced monocyte activation” and the “calreticulin on the cell surface” value ([4]; concomitant with reduced viability) was “could be detected on the cell surface”.

For O=C(c1cc(Cc2n[nH]c(=O)c3ccccc23)ccc1F)N1CCN(C(=O)C2CC2)CC1 [olaparib], the tumor growth suppression [5] was “moderate tumor growth suppression”.

B1: SRP2196 (antibody, V domains shown)
VH: EVQLVESGGGLVQPGGSLRLSCAASGFNITGYYIHWVRQAPGKGLEWVGYISPNSGSTYYADSVKGRFTISADTSKNTAYLQMNSLRAEDTAVYYCARDSRRYVRPFDYWGQGTLVTVSS
VL: QAVVTQESALTTSPGETVTLTCRSSTGAVTTSNYANWVQEKPDHLFTGLIGGTNKRAPGVPARFSGSLIGDKAALTITGAQTEDEAIYFCALWYSNLWVFGGGTKLTVL
modifications: Synthetic: 1944-A07; VH; Synthetic: SP34 ; VL
With B1 the “Domain binding by ELISA” value [6] was “Fz”.

B2: SRP2196-B07 (antibody, V domains shown)
VH: B1 VH with Y33H, K43E, S57A, K65E, N84H, A97T, P106G, F107W
VL: B1 VL
For B2, the “HCT 116-hROR1 Binding Bmax (MFI)” value [7] was 15139 MFI, the Kd ([7]; read-out: HCT 116-hROR1 Binding Kd) was 0.3 nM and the “TM2 (° C.)” value [8] was 69 °C. The “Biacore human ROR1-Fz ka” value [9] was 185000 M⁻¹ s⁻¹, the “Biacore human ROR1-Fz kd” value [9] was 0.000269 s⁻¹ and the Kd [9] was 1.45 nM.
